Patent US9833497B2, “Human originated EGF domain proteins and use of the same” (CHENGDU SOURCEBIO LIMITED-LIABILITY COMPANY, priority 2013, dated 2017)

Key:
Assay type in all cases: cell-based
Serratia marcescens = experiment: MIC against Gram-negative bacteria: Serratia marcescens; settings: 5×10^5 CFU/mL
Method in brief: (§1)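 Two-fold serial dilutions of each purified human EGF domain protein, three replicate wells per level, were combined with bacteria at a final 5×10^5 CFU/mL in LB. Cultures were shaken at 175 rpm, 37° C. The MIC was taken as the minimum concentration preventing growth.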

E. coli DH5α = experiment: Antibacterial activity: MIC and growth curve against E. coli DH5α in 96-well plate; settings: minimal inhibitory concentration against E. coli DH5α; 96-well plate, 5×10^5 CFU/mL, 37° C., judged after 8 h
Method in brief: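 Log-phase DH5α (OD600 about 0.5, 37° C, 185 rpm in LB) was pelleted, resuspended in fresh LB and seeded at 5×10^5 CFU/mL with recombinant protein at 50, 25 and 12.5 μg/mL (two-fold series), in triplicate. Plates were shaken at 175 rpm, 37° C, and OD600 was read every 30 min. MIC was the lowest concentration with no growth.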

E. coli BL21 = experiment: MIC against Gram-negative bacteria: E. coli BL21; settings: 5×10^5 CFU/mL
Method in brief: as §1

Enterobacter cloacae = experiment: MIC against Gram-negative bacteria: Enterobacter cloacae; settings: 5×10^5 CFU/mL
Method in brief: as §1

Klebsiella pneumonia = experiment: MIC against Gram-negative bacteria: Klebsiella pneumonia; settings: 5×10^5 CFU/mL
Method in brief: as §1

Aeromonas hydrophila = experiment: MIC against Gram-negative bacteria: Aeromonas hydrophila; settings: 5×10^5 CFU/mL
Method in brief: as §1

Proteus vulgaris = experiment: MIC against Gram-negative bacteria: Proteus vulgaris; settings: 5×10^5 CFU/mL
Method in brief: as §1

Moraxella catarrhalis = experiment: MIC against Gram-negative bacteria: Moraxella catarrhalis; settings: 5×10^5 CFU/mL
Method in brief: as §1

Citrobacter diversus = experiment: MIC against Gram-negative bacteria: Citrobacter diversus; settings: 5×10^5 CFU/mL
Method in brief: as §1

Pseudomonas aeruginosa = experiment: MIC against Gram-negative bacteria: Pseudomonas aeruginosa; settings: 5×10^5 CFU/mL
Method in brief: as §1

Proteus mirabilis = experiment: MIC against Gram-negative bacteria: Proteus mirabilis; settings: 5×10^5 CFU/mL
Method in brief: as §1

PRT616 (CDCNGKSRQCIFDRELHRQTGNGFRCLNCNDNTDGIHCEKCKNGFYRHRERDRCLP; listed as Homo sapiens)
12.5 µg/mL: MIC S. marcescens (Serratia marcescens; 96-well plate, 37° C., 10 h) | MIC E. coli BL21 (E. coli BL21; 96-well plate, 37° C., 10 h) | MIC E. cloacae (Enterobacter cloacae; 96-well plate, 37° C., 10 h) | MIC C. diversus (Citrobacter diversus; 96-well plate, 37° C., 10 h) | MIC P. mirabilis (Proteus mirabilis; 96-well plate, 37° C., 10 h)
25 µg/mL: MIC (E. coli DH5α) | MIC A. hydrophila (Aeromonas hydrophila; 96-well plate, 37° C., 10 h) | MIC P. vulgaris (Proteus vulgaris; 96-well plate, 37° C., 10 h) | MIC M. catarrhalis (Moraxella catarrhalis; 96-well plate, 37° C., 10 h) | MIC P. aeruginosa (Pseudomonas aeruginosa; 96-well plate, 37° C., 10 h)
50 µg/mL: MIC K. pneumonia (Klebsiella pneumonia; 96-well plate, 37° C., 10 h)

PRT21 (NCATPCTEGCECNQGFVLSTSQCV; listed as Homo sapiens)
50 µg/mL: MIC (μg/mL) S. marcescens (Serratia marcescens; Serratia marcescens, 96-well plate, 37° C., 10 h) | MIC (μg/mL) E. coli BL21 (E. coli BL21; E. coli BL21, 96-well plate, 37° C., 10 h) | MIC (μg/mL) E. cloacae (Enterobacter cloacae; Enterobacter cloacae, 96-well plate, 37° C., 10 h) | MIC (μg/mL) P. mirabilis (Proteus mirabilis; Proteus mirabilis, 96-well plate, 37° C., 10 h)
25 µg/mL: MIC (E. coli DH5α) | MIC (μg/mL) K. pneumonia (Klebsiella pneumonia; Klebsiella pneumonia, 96-well plate, 37° C., 10 h) | MIC (μg/mL) P. vulgaris (Proteus vulgaris; Proteus vulgaris, 96-well plate, 37° C., 10 h) | MIC (μg/mL) C. diversus (Citrobacter diversus; Citrobacter diversus, 96-well plate, 37° C., 10 h)
12.5 µg/mL: MIC (μg/mL) A. hydrophila (Aeromonas hydrophila; Aeromonas hydrophila, 96-well plate, 37° C., 10 h) | MIC (μg/mL) M. catarrhalis (Moraxella catarrhalis; Moraxella catarrhalis, 96-well plate, 37° C., 10 h) | MIC (μg/mL) P. aeruginosa (Pseudomonas aeruginosa; Pseudomonas aeruginosa, 96-well plate, 37° C., 10 h)

PRT684 (APVLCPLICHNGGVCVKPDRCLCPPDFAGKFCQ; listed as Homo sapiens)
50 µg/mL: MIC A. hydrophila (Aeromonas hydrophila; 96-well plate, 37° C., 10 h) | MIC P. vulgaris (Proteus vulgaris; 96-well plate, 37° C., 10 h) | MIC P. aeruginosa (Pseudomonas aeruginosa; 96-well plate, 37° C., 10 h)
25 µg/mL: MIC E. coli BL21 (E. coli BL21; 96-well plate, 37° C., 10 h) | MIC K. pneumonia (Klebsiella pneumonia; 96-well plate, 37° C., 10 h) | MIC C. diversus (Citrobacter diversus; 96-well plate, 37° C., 10 h) | MIC P. mirabilis (Proteus mirabilis; 96-well plate, 37° C., 10 h)
12.5 µg/mL: MIC S. marcescens (Serratia marcescens; 96-well plate, 37° C., 10 h) | MIC (E. coli DH5α) | MIC E. cloacae (Enterobacter cloacae; 96-well plate, 37° C., 10 h) | MIC M. catarrhalis (Moraxella catarrhalis; 96-well plate, 37° C., 10 h)

PRT468 (LCTPRCMNGGLCVTPGFCICPPGFYGVNCD; listed as Homo sapiens)
12.5 µg/mL: MIC against E. coli BL21 (E. coli BL21; 96-well plate, 37° C., 10 h) | MIC against A. hydrophila (Aeromonas hydrophila; 96-well plate, 37° C., 10 h) | MIC against P. vulgaris (Proteus vulgaris; 96-well plate, 37° C., 10 h) | MIC against M. catarrhalis (Moraxella catarrhalis; 96-well plate, 37° C., 10 h)
50 µg/mL: MIC against S. marcescens (Serratia marcescens; 96-well plate, 37° C., 10 h) | MIC against K. pneumonia (Klebsiella pneumonia; 96-well plate, 37° C., 10 h) | MIC against C. diversus (Citrobacter diversus; 96-well plate, 37° C., 10 h) | MIC against P. mirabilis (Proteus mirabilis; 96-well plate, 37° C., 10 h)
25 µg/mL: MIC (E. coli DH5α) | MIC against E. cloacae (Enterobacter cloacae; 96-well plate, 37° C., 10 h) | MIC against P. aeruginosa (Pseudomonas aeruginosa; 96-well plate, 37° C., 10 h)

PRT1439 (EEDECAKPDRGGCEQRCLNTLGSYQCACEPGYELGPDRRSCE; listed as Homo sapiens)
12.5 µg/mL: MIC against E. coli BL21 (E. coli BL21; E. coli BL21, 10 h cultivation at 37° C.) | MIC against K. pneumonia (Klebsiella pneumonia; Klebsiella pneumonia, 10 h cultivation at 37° C.) | MIC against A. hydrophila (Aeromonas hydrophila; Aeromonas hydrophila, 10 h cultivation at 37° C.) | MIC against P. vulgaris (Proteus vulgaris; Proteus vulgaris, 10 h cultivation at 37° C.) | MIC against M. catarrhalis (Moraxella catarrhalis; Moraxella catarrhalis, 10 h cultivation at 37° C.)
50 µg/mL: MIC against S. marcescens (Serratia marcescens; Serratia marcescens, 10 h cultivation at 37° C.) | MIC (E. coli DH5α) | MIC against E. cloacae (Enterobacter cloacae; Enterobacter cloacae, 10 h cultivation at 37° C.) | MIC against C. diversus (Citrobacter diversus; Citrobacter diversus, 10 h cultivation at 37° C.) | MIC against P. aeruginosa (Pseudomonas aeruginosa; Pseudomonas aeruginosa, 10 h cultivation at 37° C.) | MIC against P. mirabilis (Proteus mirabilis; Proteus mirabilis, 10 h cultivation at 37° C.)
